From patent publication US20080249144A1, “Preventive or Therapeutic Agent for Chronic Inflammatory Lung Disease” (KAKEN PHARMACEUITICAL CO., LTD., priority 2004, published 2008)

Experiments:
[1] = system: PPE-induced pulmonary emphysema model; assay: PPE-induced pulmonary emphysema model in mice; format: in vivo
Experimental: Eight-week old C57BL strain mice were anaesthetized with isoflurane. PPE (25 μg) was administered once to the lung through a cannula inserted into the trachea through the pharyngolarynx to induce a pulmonary damage. To a non-PPE administration group (normal group), saline was administered instead. In a preventive administration experiment (hereinafter referred to as a “preventive experiment”) of KP-496, drug effect was evaluated on inflammatory cells in BALF 2 days after PPE administration and by histopathological examination of the lung after 10 days. In a therapeutic administration experiment of KP-496 (hereinafter referred to as a “therapeutic experiment”), the drug effect was evaluated by histo-pathological examination of the lung and weight of the organs 14 days after PPE administration.
The medicament administration period was set from the PPE administration date to the day before autopsy in the preventive experiment and set from a predetermined day (KP-496A group: PPE administration date, KP-496B group: 3 days after PPE administration date, KP-496C group: 7 days after PPE administration date) to the day before autopsy in the therapeutic experiment. Inhalation administration of KP-496 was performed in the same manner as in Example 2. Furthermore, the normal group and the control group were allowed to spontaneously inhale saline, instead. A medicament for use in comparison, prednisolone, was orally administered in a dose of 5 mg/kg twice a day. A group consisted of 10 animals.
The animals were anaesthetized with pentobarbital and killed by exsanguination. Immediately after that, BAL of the right and left lungs was performed with 2 ml of saline. In the same manner as in Example 2, the total number of cells and the number of cells according to the cell type in the BALE were determined.
The lung was excised out from the animal killed by exsanguination in the same manner as in the above, the weight of the lung was measured. The lung was fixed in 10 vol % neutral buffered formalin solution. A pathological tissue sample was prepared in accordance in a general way. The degree of the damage of the lung tissue observed was evaluated by scoring in the same manner as in Example 2. Furthermore, the average of alveolar-space area of the entire lung tissue sample was computationally measured with image-processing software.
The average value and standard deviation of each group were calculated. Comparison between the normal group and the control group was performed by the Levene's test for equal variance and then, the t-test was performed depending on the results. To compare the control group and test substance administration groups, equal variance was first confirmed by the Levene's test and then multiple comparisons were performed in accordance with the Dunnett's test. Note that evaluation parameters with unequal variance and the damage score of the lung tissue were analyzed by nonparametric Mann-Whitney test. The significance level employed was […].

[2] = KP-496 concentration in the mouse lung tissue after inhalation; format: in vivo, mice; settings: after 30 min inhalation of nebulized KP-496 solution (0.5 w/v %)
Experimental: Seven-week old C57BL-strain male mice were was used. The mouse was allowed to inhale nebulized KP-496 for 30 min. through a nasal cavity to the lung tissue in the same manner as in Example 2. After completion of the inhalation, the mouse was killed by exsanguination under anaesthesia with pentobarbital. Immediately after that, the lung was excised out, weighed and freezed at −80° C. to store. A 4-fold volume of phosphate buffer was added to the lung homogenized and measured with LC-MS. The number of animals was five.

[3] = system: vanadium pentoxide-induced bronchitis model; assay: Vanadium pentoxide-induced bronchitis model in mice; format: in vivo; settings: 7 days after vanadium pentoxide; compared with control
Experimental: Seven-week old C57BL strain male mice were used. The mouse was anaesthetized with isoflurane. Vanadium pentoxide (20 μg) was administered once to the lung through a cannula inserted into the trachea through the pharyngolarynx to induce pathology. To a non-vanadium pentoxide administration group (normal group), saline was administered, instead. KP-496 was administered by inhalation twice a day in the period from the vanadium pentoxide administration date to the day before autopsy, in the same manner as in Example 2. Furthermore, the normal group and the control group were allowed to spontaneously inhale saline in the same manner. A medicament for use in comparison, prednisolone, was orally administered at a dose of 5 mg/kg twice a day in the period from the vanadium pentoxide administration date to the day before autopsy. Note that the normal group consisted of 6 animals and the other group consisted of 10 animals. Each of the mice was anaesthetized with pentobarbital 7 days after vanadium pentoxide administration and killed by bloodletting from the abdominal aorta. The lung was excised out and fixed in 10 vol % neutral buffered formalin solution. […] The obtained value was divided by the circumferential length of the bronchial lumen (obtained in mucosal basal membrane) and the quotient was expressed as a mucus producing region area per millimeter of the bronchus. […]

[4] = 2 days after PPE, compared to control group
[5] = preventive experiment, 10 days after PPE

CC(C)c1csc(COc2cccc(CN(CCCCNS(=O)(=O)c3ccc(Cl)cc3)S(=O)(=O)c3ccccc3C(=O)O)c2)n1 [KP-496, 2-{N-[4-(4-chlorobenzenesulfonylamino)butyl]-N-{3-[(4-isopropyl-2-thiazolyl)methoxy]benzyl}}sulfamoylbenzoic acid]
total number of cells in BALF ([1]; 2 days after PPE administration, preventive experiment): 3.1±0.8 ×10^5 cells
number of eosinophils in BALF [1, 4]: lower values than in the control group
number of macrophages in BALF [1, 4]: significantly decreased
number of neutrophils in BALF [1, 4]: significantly decreased
weights of the organs (liver, spleen and thymus gland) ([1]; mouse, in vivo): No effect was observed
emphysema-like pathology of the lung (histopathology) [1, 5]: the pathologic lesion was localized and mild
increase in lung weight [1, 5]: significantly suppressed
damage score of the lung ([1]; preventive experiment, 10 days after PPE, compared with control group): significantly decreased
increase of the average of the alveolar-space area ([1]; preventive experiment, compared to control): significantly suppressed
lung weight ([1]; therapeutic experiment, 14 days after PPE, despite difference of the administration initiation date): lower values than the control group
damage score of the lung ([1]; therapeutic experiment, 14 days after PPE, each of the groups (start day 0, 3 or 7)): significantly decreased
lung weight, difference to control group ([1]; therapeutic experiment, administration started from PPE administration date): a significant difference was observed
increase of the average of the alveolar-space area ([1]; therapeutic experiment, each of the groups (start day 0, 3 or 7)): significantly suppressed
content of KP-496 in murine lung [2]: 418 ± 114 ng
increase of PAS positive area (mucus producing region of intrapulmonary bronchial epithelium) [3]: significantly suppressed
